Assays:
[1] = MTT cytotoxicity assay on L929 fibroblasts; format: cell-based, murine; conditions: mouse, compounds 100-0.78 μM, GA 10-0.078 μM, 2 independent experiments
Experimental: (§1) The NCTC clone 929 (L-929) murine fibroblast isolated from subcutaneous connective tissue (ATCC-CCL-1) were cultured in Dulbecco’s Modified Eagle Medium (DMEM) supplemented with 10 mM Hepes (pH 6.98–7.30), 1 mM l-glutamine, 100 U/ml of penicillin/streptomycin (BioWhittaker, Lonza, EuroClone SpA), and heat-inactivated 10% FBS. All cells were cultured at 37°C in a 5% CO2 humidified incubator.
(§2) The MTT method was employed as previously described to determine the viability of fibroblast cell lines. Briefly, cells seeded into 96-well plates at a density of 20,000 cells/well after overnight incubation, were exposed to selected compounds at the indicated concentrations for 24–72 h. Next they were gently washed, incubated with MTT (bromuro di 3-(4,5-dimetiltiazol-2-il)-2,5-diphenyltetrazolium) for 4 h, and processed for color detection with DMSO. The resulting purple solution was spectrophotometrically measured at 570 nm using a Varioskan Lux instrument and Skanit software (Thermo Fisher Scientific).
(§3) The optical density values for both assays were expressed as a percentage of cell survival and normalized with the value of cells treated with vehicle (DMSO), and the data were analyzed using GraphPad Prism v9.5.1 software (San Diego, CA, USA).
(§4) The cytotoxicity of the hit compounds was assessed in two independent experiments on murine L929 and human BJ fibroblasts at 24 h by MTT assays. Vehicle (DMSO) and Gambogic acid (GA) were used as negative and positive control respectively. The compounds show a safe profile on both cell lines (S2 Table).
(§5) The IC50(μM) shown was calculated by dose-response curves of the compounds on murine L929 and human BJ fibroblast cells. […] The data are representative of 2 independent experiments. Gambogic acid (GA) and vehicle (DMSO) were used as positive and negative controls respectively. (DOCX)

[2] = MTT cytotoxicity assay on BJ fibroblasts; format: cell-based; conditions: human, compounds 100-0.78 μM, GA 10-0.078 μM, 2 independent experiments
Experimental: as §1, §2, §3, §4, §5

[3] = tested on: S. mansoni eggs laid by worm pairs; test: Egg counts and egg maturation staging (Vogel and Prata) in vitro; format: cell-based, Schistosoma mansoni; conditions: exp4
Description: The eggs produced by worm pairs in vitro were counted at day 3 upon treatment using an inverted Leica DM IL microscope (Leica Microsystems, Wetzlar, Germany). Images were captured with a BX41 Olympus (Olympus, Tokyo, Japan) microscope and a brightfield objective 10× served by an Olympus DP23 microscope digital camera and visualized using “CellSens Entry” software (version 3.1.1). Egg maturation morphological score was assigned based on the Vogel and Prata’s staging system of egg maturation previously reported.
Therefore at 72 h upon worm pairs treatment the eggs were counted and classified by microscopic observation according to the Vogel and Prata staging system of egg maturation and grouped as immature (stages I and II), intermediate/developed (stages III–V), viable or damaged eggs.
Panel B. Histograms represent the percentages of eggs at different maturation stages +/- SEM counted at 72 h after treatment; 5–6 microscopy images of at least 3 independent experiments were analyzed. Filled red triangles indicate viable eggs at stages I–II (immature); empty red triangles indicate damaged/morphological abnormal eggs at stages I–II (immature); filled red arrows indicate viable eggs at stages III–V (intermediate/developed); empty red arrows indicate damaged/morphological abnormal eggs at stages III-V; ef, egg fragments; sp, sperm cells; oc, oocyte. Scale Bars = 200 μm.

Structure (SMILES)	IC50 at 24 h [1] [nM]	IC50 at 24 h [2] [nM]	% Stage I/II damaged [3] [%]	% Stage I/II viable [3] [%]	%Stage II/IV/V viable [3] [%]	%Stage III/IV/V damaged [3] [%]	Stage I/II damaged counts [3]	Stage I/II viable (egg counts) [3]	Stage II/IV/V viable (egg counts) [3]	Stage III/IV/V damaged (egg counts) [3]	egg counts [3]
CC(C)=CCC[C@]1(C)C=Cc2c(O)c3c(c(CC=C(C)C)c2O1)O[C@]12C(=C[C@@H]4C[C@H]1C(C)(C)O[C@@]2(C/C=C(/C)C(=O)O)C4=O)C3=O [GA, Gambogic acid, reference compound]	500	350									
CC(/C=C/C(=O)NO)=C\[C@@H](C)C(=O)c1ccc(N(C)C)cc1 [TSA, Trichostatin A, reference compound]			100.0	0.0	0.0	0.0	1431	0	0	0	1431
